In patent US10155777B2, “Trans-cycloheptenes and hetero-trans-cycloheptenes for bioorthogonal coupling” (UNIVERSITY OF DELAWARE, priority 2015, dated 2018):

Assay: Rate of tetrazine ligation, by restoring of fluorescence, stopped-flow spectrophotometer
Details: 9:1 H2O:MeOH at 25° C., low concentration
Text: The rate of the reaction between (E)-Si-(4-hydroxybutyl)-Si-methyl-5-silacycloheptene and tetramethylrhodamine-conjugated dipyridyl tetrazine was studied. The results are shown in Scheme 2. With a rate constant that exceeds 10^7 M^−1s^−1 (Scheme 2), (E)-Si-(4-hydroxybutyl)-Si-methyl-5-silacycloheptene is the most reactive dienophile to date for bioorthogonal applications. As the reaction was too rapid for reliable rate determination by UV-vis kinetics, the inventors determined the rate of the reaction by the restoring of fluorescence after tetrazine ligation at low concentration in 9:1 H2O:MeOH at 25° C. by using an SX 18MV-R stopped-flow spectrophotometer (Applied Photophysics Ltd.). This is depicted in Scheme 4.

C[Si]1(CCCCO)CCC=CCC1 [(E)-Si-(4-hydroxybutyl)-Si-methyl-5-silacycloheptene]
rate constant of reaction with tetrazine: exceeds 10^7 M^−1s^−1
